Earlier results, collected in patent US20040260072A1, “Hydrophilic, thiol-reactive cyanine dyes and conjugates thereof with biomolecules for fluorescence diagnosis” (priority 2003, published 2004).

Settings: in DMSO; J Chem Eng Data 1977, 22, 379

Compound: CC1(C)C(/C=C/C=C/C=C/C=C2\N(CCCCS(=O)(=O)O)c3ccc4ccccc4c3C2(C)C)=[N+](CCCCS(=O)(=O)[O-])c2ccc3ccccc3c21 [Indocyanine Green]
- Fluorescence quantum yield Q: 0.13
